Source: patent US8889378B2, “Cytochrome C synthesis inhibitors” (priority 2006, dated 2014)

What was measured:
[1] = test system: system I cytochrome c biogenesis; test: Metalloprotoporphyrin IX addition, E. coli Δccm with pRGK333 (system I), pRGK332 and pHPEX2; type: cell-based; conditions: 8 μM ZnPPIX
Description: Overnight cultures of an E. coli Δccm strain (or E. coli ΔccmΔhemA) harboring either pRGK333 (system I) or pRGK348 (system II-chuA), pRGK332 (cytochrome c4:6×His), and pHPEX2 (Varnado and Goodwin, 2004) were diluted into fresh LB broth (containing the appropriate antibiotics and 8 μM hemin for the E. coli ΔccmΔhemA strain) and incubated with aeration at 37° C. until the OD600 was approximately 0.5. […] Arabinose (0.2%) was added after one hour and incubation continued for an additional three hours. Cells were harvested and soluble protein was extracted using B-PER (Feissner et al., 2006). Cytochrome c4:6×His was purified from 300 μg of total protein and 20 μL was subjected to SDS-PAGE and transferred to nitrocellulose. Prior to heme stain and c4 immunoblot, the nitrocellulose blots were screened for fluorescence on an LAS-1000plus Luminescent Image Analyzer CCD camera system (Fujifilm; Tokyo, Japan).
(§1) Heme stains were performed as described (Feissner et al., 2003) using SuperSignal Femto chemiluminescent substrate (Pierce). Heme stain quantitation used LOLITA II (Low Light Test Array; raytestUSA; Wilmington, N.C.) for standardization of light intensity detection on an LAS1000plus Luminescent Image Analyzer CCD camera system. For Western blotting, extracts were first separated by 12% or 15% SDS-PAGE and electroblotted onto Hybond-C nitrocellulose membranes (Amersham). Protein A peroxidase (Sigma-Aldrich) was used as the secondary label. Detection used the SuperSignal West Femto ECL detection system (Pierce). Chemiluminescence from heme stains and Western blots were detected using an LAS-1000plus Luminescent Image Analyzer CCD camera system (Fujifilm). Protein concentrations were determined using the BCA assay (Pierce) using BSA as a standard. The reduced (10 mM sodium dithionite) and oxidized (10 mM ammonia persulphate) absorption spectra were obtained as previously described (Goldman et al., 1996) using Ni^2+ affinity-purified holocytochrome c4:His. Protein concentrations were determined with the BCA assay kit (Pierce) using BSA as a standard.
ZnPPIX (and SnPPIX), when present with 8 μM heme, may compete with heme for ChuA-dependent transport into the cell. Using an E. coli Δccm strain (RK103) that has endogenous heme production, it was tested whether ZnPPIX (and SnPPIX) caused a reduction in holocytochrome c4 levels detectable by heme stain. When E. coli Δccm with pRGK333 (system I), pRGK332, and pHPEX2 were treated with ZnPPIX, a decrease in holocytochrome c4:6×His was detected as the concentration of ZnPPIX was increased (FIG. 16A left panel, lanes 1-5).
The three other metal protoporphyrins, SnPPIX, MnPPIX, and CoPPIX, were also tested in the E. coli Δccm background with system I or II. […]

[2] = test system: system I cytochrome c biogenesis; test: Metalloprotoporphyrin IX addition, E. coli ΔccmΔhemA with pRGK333 (system I), pRGK332, pHPEX2 and 8 μM heme; type: cell-based
Description: Overnight cultures of an E. coli Δccm strain (or E. coli ΔccmΔhemA) harboring either pRGK333 (system I) or pRGK348 (system II-chuA), pRGK332 (cytochrome c4:6×His), and pHPEX2 (Varnado and Goodwin, 2004) were diluted into fresh LB broth (containing the appropriate antibiotics and 8 μM hemin for the E. coli ΔccmΔhemA strain) and incubated with aeration at 37° C. until the OD600 was approximately 0.5. The mid-log phase cultures were divided into 5 mL aliquots to which IPTG (1 mM) and a metalloprotoporphyrin IX (Zn (II), Sn (IV), Co (III), or Mn (III); 0 μM to 25 μM) were added. Arabinose (0.2%) was added after one hour and incubation continued for an additional three hours. Cells were harvested and soluble protein was extracted using B-PER (Feissner et al., 2006). Cytochrome c4:6×His was purified from 300 μg of total protein and 20 μL was subjected to SDS-PAGE and transferred to nitrocellulose. Prior to heme stain and c4 immunoblot, the nitrocellulose blots were screened for fluorescence on an LAS-1000plus Luminescent Image Analyzer CCD camera system (Fujifilm; Tokyo, Japan).
as §1
The chemical properties of iron may not be uniquely critical for its attachment to apocytochrome c during cytochromes c biogenesis. To test whether any of the cytochromes c biogenesis systems can incorporate other metal porphyrins, four metalloporphyrins were chosen to screen for incorporation into the into the CXXCH motif of a c-type cytochrome: ZnPPIX, SnPPIX, MnPPIX, and CoPPIX. These four metalloporphyrins were tested to determine whether heme can be replaced by other metalloporphyrins in the c-type cytochrome (c4:6×His) reporter. Cultures of E. coli ΔccmΔhemA containing pRGK333 (system I), pRGK332 (c4:6×His), and pHPEX2 were grown overnight in 300 μM ALA and subcultured into fresh LB medium containing 8 μM heme and grown to an OD600 of 0.5. IPTG and metalloporphyrin (8 μM, 12.5 μM, or 25 μM) were then added and growth continued for one hour. Arabinose was added to 0.2% to induce the synthesis of the c4:6×His and growth continued for three more hours before cells were harvested. […] As expected, heme was detected on c4:6×His when either 8 μM or 25 μM heme alone was added (FIG. 15 lanes 1 and 2, respectively).

E. coli Δccm = test: Growth of E. coli Δccm with pRGK333, pRGK332 and pHPEX2 in the presence of ZnPPIX; type: cell-based; conditions: 12.5 μM or 25 μM; compared to the same strain without ZnPPIX
Description: FIG. 21. Growth of E. coli Dccm containing pRGK333, pRGK332, and HPEX2 in the presence of ZnPPIX. Overnight cultures of E. coli Dccm containing pRGK333 (system I), pRGK332 (cytochrome c4:6×His), and pHPEX2 were diluted into fresh LB broth containing the indicated ZnPPIX ([…]) concentrations for growth measurements.
To rule out that ZnPPIX is not affecting some basic cellular processes, growth studies were performed with E. coli Δccm harboring pRGK333 (system I), pRGK332 (c4:6×His), and pHPEX2.

[3] = test system: system I cytochrome c biogenesis; test: NMPP-ZnPPIX combined inhibition, E. coli Δccm with pRGK333 (system I), pRGK332 and pHPEX2; type: cell-based
Description: 100 mL cultures of E. coli Δccm containing pRGK333 (system I), pRGK332 (c4:6×His), and pHPEX2 (Varnado and Goodwin, 2004) were inoculated with 1% (v/v) from an overnight culture and grown with aeration at 37° C. to an OD600 of approximately 0.5. The mid-log phase cultures were divided into 5 mL aliquots to which IPTG (1 mM, to induce the synthesis of the system I proteins and the chuA gene) and NMPP (0 μM to 100 μM) were added. After one hour 0.2% arabinose was added (to induce the synthesis of the B. pertussis c4:6×His) and cultures were incubated an additional three hours. […]
(§2) Heme stains were performed as described (Feissner et al., 2003) using SuperSignal Femto chemiluminescent substrate (Pierce). Heme stain quantitation used LOLITA II (Low Light Test Array; raytestUSA; Wilmington, N.C.) for standardization of light intensity detection on an LAS1000plus Luminescent Image Analyzer CCD camera system. […] Chemiluminescence from heme stains and Western blots were detected using an LAS-1000plus Luminescent Image Analyzer CCD camera system (Fujifilm). Protein concentrations were determined using the BCA assay (Pierce) using BSA as a standard. […] Protein concentrations were determined with the BCA assay kit (Pierce) using BSA as a standard. […]

[4] = test system: system II cytochrome c biogenesis (H. pylori CcsBA); test: NMPP inhibition of holocytochrome c4:His synthesis, RK103 with pRGK334 (system II) and pRGK332; type: cell-based, E. coli; conditions: all trials; heme stain
Description: (§3) Five milliliter cultures of E. coli Δccm harboring either the pRGK333 or pRGK334 plasmid and pRGK332, or pRGK345 and pRGK349, were inoculated with 300 μl of overnight culture grown for 3 h to mid-exponential phase (A600=0.6). At this point, IPTG and NMPP (Frontier Scientific) were added to each culture; IPTG was added (1 mM) to induce the synthesis of system I (pRGK333), system II (pRGK334), or ΔccmE (pRGK345) while NMPP (10 mM stock in 50% DMSO) was added to a final concentration of 0-100 μM. After addition of IPTG and NMPP, cultures were grown an additional hour before induction of cytochrome c4:His (and ccmE from pRGK349) with 0.2% arabinose. Cells were grown for an additional 3 h and then harvested by centrifugation. […]
as §2

[5] = test system: system I cytochrome c biogenesis with arabinose-inducible CcmE; test: NMPP inhibition, RK103 with pRGK345 (system I, ccmE deletion) and pRGK349 (arabinose-inducible c4:His and CcmE); type: cell-based, E. coli; conditions: 100 μM NMPP; compared with pRGK333 and constitutively produced CcmE
Description: as §3, §2

Compound	holocytochrome c4:6×His produced, % of wild type levels [1]	level of heme on c4:6×His ([2]; 25 μM ZnPPIX with 8 μM heme, heme stain)	effect on the level of detectable heme on c4:6×His (holocytochrome c4) ([2]; metalloporphyrin 8, 12.5 or 25 μM with 8 μM heme)	rate or yield of growth (E. coli Δccm)	holocytochrome c4:6×His levels ([3]; 60 μM NMPP alone)	holocytochrome c4:6×His levels ([3]; 100 μM NMPP alone)	NMPP concentration at which holocytochrome c4:His production was completely abolished [4]	amount of holocytochrome c4:His [5]
C=CC1=C(C)c2cc3[n-]c(cc4[n-]c(cc5nc(cc1n2)C(C)=C5C=C)c(C)c4CCC(=O)O)c(CCC(=O)O)c3C.[Zn+2] [ZnPPIX, zinc (II) protoporphyrin IX]	approximately 20%	nearly undetectable	decreasing amounts of holocytochrome c4	no decrease in the rate or yield of growth				
N-methylprotoporphyrin [NMPP]					approximately 54%	approximately 30%	less than 20 μM	dramatic reduction
